For this experiment, the target named is DYRK1A (Homo sapiens, UniProt Q13627). As to the kind of experiment: Affinity testing of compounds with DYRK1A (KD). Format: binding. Particulars: DYRK1A affinity key classes.

Kd data for 38 compounds are collected here from patent publication US12054483B2, “Small molecule inhibitors of DYRK/CLK and uses thereof” (Arizona Board of Regents on Behalf of the University of …, priority 2018, dated 2024).

For the compound `Cc1nc2ccc(-c3ccnc(C(F)F)c3)nc2n1-c1ccc2c(c1)OCO2` [Compound 61, 3-(benzo[d][1,3]dioxol-5-yl)-5-(2-(difluoromethyl)pyridin-4-yl)-2-methyl-3H-imidazo[4,5-b]pyridine], the Kd (in general, the concentration at which binding is half-saturated) is 501 to 10000 nM.

Regarding `Cc1nc2ccc(-c3ccnc(N)c3)nc2n1-c1ccc(N2CCOC[C@H]2C)c(F)c1` [Compound 170, (R)-4-(3-(3-fluoro-4-(3-methylmorpholino)phenyl)-2-methyl-3H-imidazo[4,5-b]pyridin-5-yl)pyridin-2-amine], the Kd was in the range of 0.5 to 100 nM.

`Fc1c(-c2ccncc2)ccc2nc(C3CC3)n(-c3ccc4c(c3)OCO4)c12` [Compound 21, 1-(benzo[d][1,3]dioxol-5-yl)-2-cyclopropyl-7-fluoro-6-(pyridin-4-yl)-1H-benzo[d]imidazole] showed a Kd of 501 to 10000 nM.

`Cc1nc2ccc(-c3ccnc(N)c3)nc2n1-c1ccc(N2CCOCC2)c(Cl)c1` [Compound 168, 4-(3-(3-chloro-4-morpholinophenyl)-2-methyl-3H-imidazo[4,5-b]pyridin-5-yl)pyridin-2-amine] came in with a Kd of 0.5 to 100 nM.

For `Cc1cc(-c2ccc3nc(C)n(-c4ccc(N5CCOCC5)cc4)c3n2)cc(C)n1` [Compound 53, 4-(4-(5-(2,6-dimethylpyridin-4-yl)-2-methyl-3H-imidazo[4,5-b]pyridin-3-yl)phenyl)morpholine], the dissociation constant Kd lay in the range of 501 to 10000 nM.

`O=C(O)c1ccc(-n2cnc3ccc(-c4ccncc4)nc32)cc1` [Compound 10, 4-(5-(pyridin-4-yl)-3H-imidazo[4,5-b]pyridin-3-yl)benzoic acid] yielded a dissociation constant (Kd) of 0.5 to 100 nM.

In turn, `Cc1cc(-c2ccc3ncc(-c4ccc(CN5CCC(C)(C)CC5)cc4)n3n2)ccn1` [Compound 93, 3-(4-((4,4-dimethylpiperidin-1-yl)methyl)phenyl)-6-(2-methylpyridin-4-yl)imidazo[1,2-b]pyridazine] yielded a Kd of 101 to 500 nM.

As for `Cc1nc2ccc(-c3ccncc3)nc2n1-c1ccc(N2CCN(C)CC2)c(F)c1` [Compound 135, 3-(3-fluoro-4-(4-methylpiperazin-1-yl)phenyl)-2-methyl-5-(pyridin-4-yl)-3H-imidazo[4,5-b]pyridine], the Kd was in the range of 0.5 to 100 nM.

Compound `Cc1nc2ccc(-c3cn[nH]c3)nc2n1-c1ccc2c(c1)OCO2` [Compound 30, 3-(benzo[d][1,3]dioxol-5-yl)-2-methyl-5-(1H-pyrazol-4-yl)-3H-imidazo[4,5-b]pyridine] registered a Kd of 0.5 to 100 nM.

In turn, `c1cc(-c2ccc3ncc(-c4ccc(N5CCN(C6COC6)CC5)nc4)n3n2)ccn1` [Compound 83, 3-(6-(4-(oxetan-3-yl)piperazin-1-yl)pyridin-3-yl)-6-(pyridin-4-yl)imidazo[1,2-b]pyridazine] registered a dissociation constant (Kd) of 0.5 to 100 nM.

As to `COc1cnc(-c2ccncc2)nc1` [Compound 70, 5-methoxy-2-(pyridin-4-yl)pyrimidine], the dissociation constant Kd lay within 501 to 10000 nM.

In the case of `Cc1nc2ccc(-c3ccncc3)nc2n1-c1ccc(CN2C[C@@H]3C[C@@H]2CO3)cc1` [Compound 124, (1S,4R)-5-(4-(2-methyl-5-(pyridin-4-yl)-3H-imidazo[4,5-b]pyridin-3-yl)benzyl)-2-oxa-5-azabicyclo[2.2.1]heptane], the Kd is 0.5 to 100 nM.

In the case of `Cc1nc2ccc(-c3ccnc(N)c3)nc2n1-c1cccc(N2CCOCC2)c1` [Compound 157, 4-(2-methyl-3-(3-morpholinophenyl)-3H-imidazo[4,5-b]pyridin-5-yl)pyridin-2-amine], the Kd fell in the range of 0.5 to 100 nM.

As to `Cc1nc2ccc(-c3ccnc(N)c3)nc2n1-c1ccc(N2CCOCC2)cc1` [Compound 148, 4-(2-methyl-3-(4-morpholinophenyl)-3H-imidazo[4,5-b]pyridin-5-yl)pyridin-2-amine], the dissociation constant (Kd) lay in the range of 0.5 to 100 nM.

For the compound `Cc1nc2cc(-n3c(C)nc4ccc(-c5ccncc5)nc43)ccc2[nH]1` [Compound 138, 2-methyl-3-(2-methyl-1H-benzo[d]imidazol-5-yl)-5-(pyridin-4-yl)-3H-imidazo[4,5-b]pyridine], the equilibrium dissociation constant (Kd) is 0.5 to 100 nM.

In turn, `Fc1cc2ncn(-c3ccc4c(c3)OCO4)c2cc1-c1ccncc1` [Compound 2, 1-(benzo[d][1,3]dioxol-5-yl)-5-fluoro-6-(pyridin-4-yl)-1H-benzo[d]imidazole] yielded a Kd of 0.5 to 100 nM.

The compound `Cc1nc2ccc(-c3ccncc3)nc2n1-c1ccc(C(=O)N2CCN(C3COC3)CC2)cc1` [Compound 57, (4-(2-methyl-5-(pyridin-4-yl)-3H-imidazo[4,5-b]pyridin-3-yl)phenyl)(4-(oxetan-3-yl)piperazin-1-yl)methanone] registered a Kd of 101 to 500 nM.

In turn, `COc1cc(-n2c(C)nc3ccc(-c4ccncc4)nc32)ccc1CN1CCOCC1` [Compound 142, 4-(2-methoxy-4-(2-methyl-5-(pyridin-4-yl)-3H-imidazo[4,5-b]pyridin-3-yl)benzyl)morpholine] had a Kd of 101 to 500 nM.

Compound `Cc1nc2ccc(-c3ccnc(N)c3)nc2n1-c1cnc2[nH]ccc2c1` [Compound 152, 4-(2-methyl-3-(1H-pyrrolo[2,3-b]pyridin-5-yl)-3H-imidazo[4,5-b]pyridin-5-yl)pyridin-2-amine] displayed a dissociation constant Kd of 0.5 to 100 nM.

Take `Cc1nc2ccc(-c3ccncc3)nc2n1-c1ccc(CO)cc1` [Compound 115, (4-(2-methyl-5-(pyridin-4-yl)-3H-imidazo[4,5-b]pyridin-3-yl)phenyl)methanol]: the Kd was 0.5 to 100 nM.

`Cc1nc2ccc(-c3ccncc3)nc2n1-c1cnc2[nH]ccc2c1` [Compound 137, 2-methyl-5-(pyridin-4-yl)-3-(1H-pyrrolo[2,3-b]pyridin-5-yl)-3H-imidazo[4,5-b]pyridine] showed a Kd of 0.5 to 100 nM.

As to `Fc1c(-c2ccncc2)ccc2ncn(-c3ccc4c(c3)OCO4)c12` [Compound 1, 1-(benzo[d][1,3]dioxol-5-yl)-7-fluoro-6-(pyridin-4-yl)-1H-benzo[d]imidazole], the Kd is 0.5 to 100 nM.

On to `Cc1nc2ccc(-c3ccnc(N)c3)nc2n1-c1ccc(N2CCN(C)CC2)c(F)c1` [Compound 151, 4-(3-(3-fluoro-4-(4-methylpiperazin-1-yl)phenyl)-2-methyl-3H-imidazo[4,5-b]pyridin-5-yl)pyridin-2-amine], for which the dissociation constant (Kd) is 0.5 to 100 nM.

`Cc1nc2ccc(-c3ccncc3)nc2n1-c1ccc(C(=O)N2CCOCC2)cc1` [Compound 56, (4-(2-methyl-5-(pyridin-4-yl)-3H-imidazo[4,5-b]pyridin-3-yl)phenyl)(morpholino)methanone] displayed a Kd of 101 to 500 nM.

For the compound `Cc1nc2ccc(-c3ccnc(N)c3)nc2n1-c1ccc2c(c1)CCN2C1CCOCC1` [Compound 174, 4-(2-methyl-3-(1-(tetrahydro-2H-pyran-4-yl)indolin-5-yl)-3H-imidazo[4,5-b]pyridin-5-yl)pyridin-2-amine], the Kd was 0.5 to 100 nM.

Take `Cc1nc2ccc(-c3ccnc(N)c3)nc2n1-c1ccc(N2C[C@@H](C)O[C@@H](C)C2)nc1` [Compound 161, 4-(3-(6-((2S,6R)-2,6-dimethylmorpholino)pyridin-3-yl)-2-methyl-3H-imidazo[4,5-b]pyridin-5-yl)pyridin-2-amine]: the dissociation constant Kd lay within 0.5 to 100 nM.

As to `Cc1cc(-c2ccc3ncc(-c4ccc(CN5CCN[C@H](C)C5)cc4)n3n2)ccn1` [Compound 94, (R)-3-(4-((3-methylpiperazin-1-yl)methyl)phenyl)-6-(2-methylpyridin-4-yl)imidazo[1,2-b]pyridazine], the equilibrium dissociation constant (Kd) fell in the range of 0.5 to 100 nM.

For `COc1cc(-c2ccc3ncc(-c4ccc(CN5CCOCC5)cc4)n3n2)ccn1` [Compound 107, 4-(4-(6-(2-methoxypyridin-4-yl)imidazo[1,2-b]pyridazin-3-yl)benzyl)morpholine], the Kd was in the range of 101 to 500 nM.

The compound `Cc1nc2ccc(-c3ccnc(N)c3)nc2n1-c1ccc(N2CC3CCC(C2)O3)c(F)c1` [Compound 167, 4-(3-(4-(8-oxa-3-azabicyclo[3.2.1]octan-3-yl)-3-fluorophenyl)-2-methyl-3H-imidazo[4,5-b]pyridin-5-yl)pyridin-2-amine] had a Kd of 0.5 to 100 nM.

In the case of `Cc1nc2ccc(-c3ccnc(N)c3)nc2n1-c1ccc(N2CCOCC2)c(F)c1` [Compound 144, 4-(3-(3-fluoro-4-morpholinophenyl)-2-methyl-3H-imidazo[4,5-b]pyridin-5-yl)pyridin-2-amine], the Kd was 0.5 to 100 nM.

Compound `Cc1cc(-c2ccc3ncc(-c4ccc(CN5C[C@@H]6C[C@@H]5CO6)cc4)n3n2)ccn1` [Compound 91, (1S,4R)-5-(4-(6-(2-methylpyridin-4-yl)imidazo[1,2-b]pyridazin-3-yl)benzyl)-2-oxa-5-azabicyclo[2.2.1]heptane] returned a Kd of 0.5 to 100 nM.

In the case of `O=c1cc(-c2ccn3ncc(-c4ccc(CN5CCOCC5)cc4)c3n2)cc[nH]1` [Compound 113, 4-(3-(4-(morpholinomethyl)phenyl)pyrazolo[1,5-a]pyrimidin-5-yl)pyridin-2(1H)-one], the dissociation constant Kd lay within 501 to 10000 nM.

In turn, `Cc1nc2ccc(-c3ccncc3)nc2n1-c1ccc(C#N)cn1` [Compound 42, 6-(2-methyl-5-(pyridin-4-yl)-3H-imidazo[4,5-b]pyridin-3-yl)nicotinonitrile] displayed an equilibrium dissociation constant (Kd) of 0.5 to 100 nM.

As for `c1cc(-c2cn3c(-c4ccc5c(c4)OCO5)cnc3cn2)ccn1` [Compound 67, 3-(benzo[d][1,3]dioxol-5-yl)-6-(pyridin-4-yl)imidazo[1,2-a]pyrazine], the Kd was in the range of 0.5 to 100 nM.

Consider `Cc1cc(-c2ccc3ncc(-c4ccc(CN5CCCC(F)(F)C5)cc4)n3n2)ccn1` [Compound 89, 3-(4-((3,3-difluoropiperidin-1-yl)methyl)phenyl)-6-(2-methylpyridin-4-yl)imidazo[1,2-b]pyridazine], for which the dissociation constant Kd lay within 101 to 500 nM.

Turning to `Cc1nc2ccc(-c3cn[nH]c3)c(F)c2n1-c1ccc2c(c1)OCO2` [Compound 20, 1-(benzo[d][1,3]dioxol-5-yl)-7-fluoro-2-methyl-6-(1H-pyrazol-4-yl)-1H-benzo[d]imidazole], the equilibrium dissociation constant (Kd) is 0.5 to 100 nM.

Compound `Cc1nc2ccc(-c3ccncc3)nc2n1-c1ccc(CN2CCOCC2)cn1` [Compound 64, 4-((6-(2-methyl-5-(pyridin-4-yl)-3H-imidazo[4,5-b]pyridin-3-yl)pyridin-3-yl)methyl)morpholine] registered a Kd of 501 to 10000 nM.

As to `CC(=O)N1CCc2cc(-n3c(C)nc4ccc(-c5ccnc(N)c5)nc43)ccc21` [Compound 154, 1-(5-(5-(2-aminopyridin-4-yl)-2-methyl-3H-imidazo[4,5-b]pyridin-3-yl)indolin-1-yl)ethan-1-one], the Kd was in the range of 0.5 to 100 nM.
